Experimental data published in patent publication US7666848B2, “Thiophene glycoside derivatives, processes for the preparation, medicaments comprising these compounds, and the use thereof” (Sanofi-Aventis Deutschland GmbH, priority 2002, dated 2010).

Tested on: rabbit renal cortex brush border membrane vesicles
Assay: Uptake of [14C]-labeled glucose into brush border membrane vesicles (transport assay, membrane filtration method)
Type: biochemical
Conditions: transport assay on rabbit renal cortex brush border membrane vesicles; 10 μM [14C]D glucose, 30° C., 15 seconds; β-D-gluco form

| SMILES | IC25 |
| --- | --- |
| COc1ccc(Cc2sccc2OC2OC(CO)C(O)C(O)C2O)cc1 (centres unmarked) [Example 7, 2-Hydroxymethl-6-[2-(4-methoxy-benzyl)-thiophen-3-yloxy]-tetrahydro-pyran-3,4,5-triol] | 1.1 µM |
| COc1ccc(Cc2sc(C(F)(F)F)cc2OC2OC(CO)C(O)C(O)C2O)cc1 (centres unmarked) [Example 54] | 1.4 µM |
